# According to patent US20250122219A1 (priority 2023, published 2025):
# Legend:
# [1] = physchem; format: physicochemical; conditions: 23 °C, thermodynamic from solid; FaSSIF, 24 h, ambient temperature, 5 mg/mL dose concentration
# Protocol: Approximately 7 mg of each test compound as a dry powder was placed in a vial. Aliquots were weighed out for each assay media at 2 hour and 24 hour time points, to be analyzed. The appropriate buffer (FaSSIF or PBS) was added to each vial such that the final dose concentration of 5 mg/mL was achieved. […] The plate was sealed with a pierceable heat seal and analyzed by HPLC-UV.
# A system QC (0.01 mg/mL Caffeine in DMSO) was injected every 12-15 injections. […] Results are reported using data obtained at 280 nm. The resulting peak areas were plotted against the known concentrations from the calibration and the filtrates are quantified with respect to the linear regression using Agilent OpenLab Intelligent Reporting Software. The results are reported electronically in mg/mL.
# [2] = Cytotoxicity assay in MT-4 cells; format: cell-based; conditions: human; uninfected MT-4 cells, 5 days incubation, Cell Titer Glo; read-out: MT4 CC50
# Procedure, shortened: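 Uninfected MT-4 cells exposed to serially diluted compounds in RPMI with 10% FBS for 5 days at 37 °C. Viability by Cell Titer Glo chemiluminescence. Puromycin […] as baseline cytotoxicity control.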
# [3] = system: HIV-1 (IIIB); assay: Antiviral assay in MT-4 cells; format: cell-based; conditions: Human immunodeficiency virus 1, MT4, 120 h; HIV-1 IIIB in MT-4 cells, 5 days incubation, Cell Titer Glo; read-out: MT4 EC50
# Procedure, shortened: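 HIV-1 IIIB-infected MT-4 cells (fresh 1:250 virus stock dilution; mock-infected controls) incubated 5 days at 37 °C with serially diluted compounds in RPMI/10% FBS; 5 μM AZT as positive control. Cell viability read by CellTiter-Glo luminescence as measure of protection from viral replication.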
solubility thermodynamic at 24 h [1],EC50 [3],SMILES,CC50 at 5 days [2]
70 µg/mL,0.0115 µM,"CC1=NO[C@@]2(CC[C@H](C)N3C[C@H]2n2cc(C(=O)NCc4ccc(F)cc4F)c(=O)c(O[C@H](C)OC(=O)OC(C)C)c2C3=O)C1 (single isomer, unassigned) [Example 20]",35 µM
150 µg/mL,0.0264 µM,"CC1=NO[C@@]2(CC[C@H](C)N3C[C@H]2n2cc(C(=O)NCc4ccc(F)cc4F)c(=O)c(O[C@@H](C)OC(=O)OC(C)C)c2C3=O)C1 (single isomer, unassigned) [Example 21]",≥ 50 µM
470 µg/mL,0.00106 µM,"COCCOCCOCCOC(=O)Oc1c2n(cc(C(=O)NCc3ccc(F)cc3F)c1=O)[C@@H]1CN(C2=O)[C@@H](C)CC[C@]12CC(OC)=NO2 [Example 3, (3′S,5S,7′R)-10′-((2,4-difluorobenzyl)carbamoyl)-3-methoxy-3′-methyl-1′,11′-dioxo-1′,4′,5′,11′-tetrahydro-3′H,4H,7′H-spiro[isoxazole-5,6′-[2,7]methanopyrido[1,2-a][1,4]diazonin]-12′-yl (2-(2-(2-methoxyethoxy)ethoxy)ethyl) carbonate]",16.3 µM
,0.00447 µM,"CC1=NO[C@@]2(CC[C@H](C)N3C[C@H]2n2cc(C(=O)NCc4ccc(F)cc4F)c(=O)c(OCOC(=O)OCCC(C)C)c2C3=O)C1 [Example 201, (((3′S,5S,7′R)-10′-((2,4-difluorobenzyl)carbamoyl)-3,3′-dimethyl-1′,11′-dioxo-1′,4′,5′,11′-tetrahydro-3′H,4H,7′H-spiro[isoxazole-5,6′-[2,7]methanopyrido[1,2-a][1,4]diazonin]-12′-yl)oxy)methyl isopentyl carbonate]",16.9 µM
,0.00271 µM,"COC1=NO[C@@]2(CC[C@H](C)N3C[C@H]2n2cc(C(=O)NCc4ccc(F)cc4F)c(=O)c(OCOC(=O)OCCC(C)C)c2C3=O)C1 [Example 202, (((3′S,5S,7′R)-10′-((2,4-difluorobenzyl)carbamoyl)-3-methoxy-3′-methyl-1′,11′-dioxo-1′,4′,5′,11′-tetrahydro-3′H,4H,7′H-spiro[isoxazole-5,6′-[2,7]methanopyrido[1,2-a][1,4]diazonin]-12′-yl)oxy)methyl isopentyl carbonate]",21.6 µM
,0.00356 µM,"CC1=NO[C@@]2(CC[C@H](C)N3C[C@H]2n2cc(C(=O)NCc4ccc(F)cc4F)c(=O)c(OCOC(=O)OCCCC(C)C)c2C3=O)C1 [Example 203, (((3′S,5S,7′R)-10′-((2,4-difluorobenzyl)carbamoyl)-3,3′-dimethyl-1′,11′-dioxo-1′,4′,5′,11′-tetrahydro-3′H,4H,7′H-spiro[isoxazole-5,6′-[2,7]methanopyrido[1,2-a][1,4]diazonin]-12′-yl)oxy)methyl (4-methylpentyl) carbonate]",26.4 µM
,0.00382 µM,"COC1=NO[C@@]2(CC[C@H](C)N3C[C@H]2n2cc(C(=O)NCc4ccc(F)cc4F)c(=O)c(OCOC(=O)OCCCC(C)C)c2C3=O)C1 [Example 204, (((3′S,5S,7′R)-10′-((2,4-difluorobenzyl)carbamoyl)-3-methoxy-3′-methyl-1′,11′-dioxo-1′,4′,5′,11′-tetrahydro-3′H,4H,7′H-spiro[isoxazole-5,6′-[2,7]methanopyrido[1,2-a][1,4]diazonin]-12′-yl)oxy)methyl (4-methylpentyl) carbonate]",29.8 µM
,0.00247 µM,"CC1=NO[C@@]2(CC[C@H](C)N3C[C@H]2n2cc(C(=O)NCc4ccc(F)cc4F)c(=O)c(OCOC(=O)OCCCCC(C)C)c2C3=O)C1 [Example 205, (((3′S,5S,7′R)-10′-((2,4-difluorobenzyl)carbamoyl)-3,3′-dimethyl-1′,11′-dioxo-1′,4′,5′,11′-tetrahydro-3′H,4H,7′H-spiro[isoxazole-5,6′-[2,7]methanopyrido[1,2-a][1,4]diazonin]-12′-yl)oxy)methyl (5-methylhexyl) carbonate]",23.1 µM
,0.00244 µM,"COC1=NO[C@@]2(CC[C@H](C)N3C[C@H]2n2cc(C(=O)NCc4ccc(F)cc4F)c(=O)c(OCOC(=O)OCCCCC(C)C)c2C3=O)C1 [Example 206, (((3′S,5S,7′R)-10′-((2,4-difluorobenzyl)carbamoyl)-3-methoxy-3′-methyl-1′,11′-dioxo-1′,4′,5′,11′-tetrahydro-3′H,4H,7′H-spiro[isoxazole-5,6′-[2,7]methanopyrido[1,2-a][1,4]diazonin]-12′-yl)oxy)methyl (5-methylhexyl) carbonate]",37.2 µM
,0.000564 µM,"CC1=NO[C@@]2(CC[C@H](C)N3C[C@H]2n2cc(C(=O)NCc4ccc(F)cc4F)c(=O)c(OCOC(=O)OCCCCCC(C)C)c2C3=O)C1 [Example 207, (((3′S,5S,7′R)-10′-((2,4-difluorobenzyl)carbamoyl)-3,3′-dimethyl-1′,11′-dioxo-1′,4′,5′,11′-tetrahydro-3′H,4H,7′H-spiro[isoxazole-5,6′-[2,7]methanopyrido[1,2-a][1,4]diazonin]-12′-yl)oxy)methyl (6-methylheptyl) carbonate]",11.3 µM
,0.000594 µM,"COC1=NO[C@@]2(CC[C@H](C)N3C[C@H]2n2cc(C(=O)NCc4ccc(F)cc4F)c(=O)c(OCOC(=O)OCCCCCC(C)C)c2C3=O)C1 [Example 208, (((3′S,5S,7′R)-10′-((2,4-difluorobenzyl)carbamoyl)-3-methoxy-3′-methyl-1′,11′-dioxo-1′,4′,5′,11′-tetrahydro-3′H,4H,7′H-spiro[isoxazole-5,6′-[2,7]methanopyrido[1,2-a][1,4]diazonin]-12′-yl)oxy)methyl (6-methylheptyl) carbonate]",21.3 µM
,0.00373 µM,"CC1=NO[C@@]2(CC[C@H](C)N3C[C@H]2n2cc(C(=O)NCc4ccc(F)cc4F)c(=O)c(OCOC(=O)OCCCCCCCC(C)C)c2C3=O)C1 [Example 211, (((3′S,5S,7′R)-10′-((2,4-difluorobenzyl)carbamoyl)-3,3′-dimethyl-1′,11′-dioxo-1′,4′,5′,11′-tetrahydro-3′H,4H,7′H-spiro[isoxazole-5,6′-[2,7]methanopyrido[1,2-a][1,4]diazonin]-12′-yl)oxy)methyl (8-methylnonyl) carbonate]",36.7 µM
,0.0086 µM,"COC1=NO[C@@]2(CC[C@H](C)N3C[C@H]2n2cc(C(=O)NCc4ccc(F)cc4F)c(=O)c(OCOC(=O)OCCCCCCCC(C)C)c2C3=O)C1 [Example 212, (((3′S,5S,7′R)-10′-((2,4-difluorobenzyl)carbamoyl)-3-methoxy-3′-methyl-1′,11′-dioxo-1′,4′,5′,11′-tetrahydro-3′H,4H,7′H-spiro[isoxazole-5,6′-[2,7]methanopyrido[1,2-a][1,4]diazonin]-12′-yl)oxy)methyl (8-methylnonyl) carbonate]",≥ 50 µM
,0.00829 µM,"COC[C@@H](C)OC(=O)OCOc1c2n(cc(C(=O)NCc3ccc(F)cc3F)c1=O)[C@@H]1CN(C2=O)[C@@H](C)CC[C@]12CC(C)=NO2 [Example 213, (((3′S,5S,7′R)-10′-((2,4-difluorobenzyl)carbamoyl)-3,3′-dimethyl-1′,11′-dioxo-1′,4′,5′,11′-tetrahydro-3′H,4H,7′H-spiro[isoxazole-5,6′-[2,7]methanopyrido[1,2-a][1,4]diazonin]-12′-yl)oxy)methyl ((R)-1-methoxypropan-2-yl) carbonate]",≥ 50 µM
,0.00625 µM,"COC[C@@H](C)OC(=O)OCOc1c2n(cc(C(=O)NCc3ccc(F)cc3F)c1=O)[C@@H]1CN(C2=O)[C@@H](C)CC[C@]12CC(OC)=NO2 [Example 214, (((3′S,5S,7′R)-10′-((2,4-difluorobenzyl)carbamoyl)-3-methoxy-3′-methyl-1′,11′-dioxo-1′,4′,5′,11′-tetrahydro-3′H,4H,7′H-spiro[isoxazole-5,6′-[2,7]methanopyrido[1,2-a][1,4]diazonin]-12′-yl)oxy)methyl ((R)-1-methoxypropan-2-yl) carbonate]",≥ 50 µM
,0.00309 µM,"COC1=NO[C@@]2(CC[C@H](C)N3C[C@H]2n2cc(C(=O)NCc4ccc(F)cc4F)c(=O)c(OCOC(=O)OC[C@@H](C)OC)c2C3=O)C1 [Example 218, (((3′S,5S,7′R)-10′-((2,4-difluorobenzyl)carbamoyl)-3-methoxy-3′-methyl-1′,11′-dioxo-1′,4′,5′,11′-tetrahydro-3′H,4H,7′H-spiro[isoxazole-5,6′-[2,7]methanopyrido[1,2-a][1,4]diazonin]-12′-yl)oxy)methyl ((R)-2-methoxypropyl) carbonate]",32.5 µM
